From PubChem BioAssay AID1918948 (Molecular Pharmacology Branch, DTP, NCI, 2023)

System: K-562 leukemia growth, % test/control
Assay: Anticancer human tumor K-562 cell line growth inhibition;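 also: spheroids exposed to compounds for 7 days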;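 as to viability, T/C: 100% = DMSO vehicle wells and lower values mean fewer viable cells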
Conditions: spheroids with HUVEC and MSC; for IC50: curve of first compound; for viability, T/C: stronger effect = lower value
Outline: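 Drug combinations with the LSD1 inhibitor iadademstat tested on tumor cells co-cultured as spheroids with endothelial cells and mesenchymal stem cells. Concentrations descended in half-log increments from clinical Cmax or 10 microM.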

[1] = second compound 0.1 µM, first compound 0.0316 µM
[2] = second compound 0.1 µM, first compound 0.1 µM
[3] = second compound 0.316 µM, first compound 0.0316 µM
[4] = second compound 0.316 µM, first compound 0.1 µM
[5] = second compound 1 µM, first compound 0.0316 µM
[6] = second compound 1 µM, first compound 0.1 µM
[7] = second compound 3.16 µM, first compound 0.0316 µM
[8] = second compound 3.16 µM, first compound 0.1 µM
[9] = second compound 10 µM, first compound 0.0316 µM
[10] = second compound 10 µM, first compound 0.1 µM

Compound: CCc1c2c(nc3ccc(O)cc13)-c1cc3c(c(=O)n1C2)COC(=O)[C@]3(O)CC + NC1CC1c1ccc(-c2cccc(O)c2)cc1
- IC50 (second compound 0.1 µM): < 0.949 nM
- IC50 (second compound 0.316 µM): < 0.949 nM
- IC50 (second compound 1 µM): < 0.949 nM
- IC50 (second compound 3.16 µM): < 0.949 nM
- IC50 (second compound 10 µM): < 0.949 nM
- viability, T/C (second compound 0.1 µM, first compound 0.000949 µM): 10.6%
- viability, T/C (second compound 0.1 µM, first compound 0.003 µM): 4.88%
- viability, T/C (second compound 0.1 µM, first compound 0.00949 µM): 2.16%
- viability, T/C (second compound 0.1 µM, first compound 0.03 µM): 0.75%
- viability, T/C (second compound 0.1 µM, first compound 0.0949 µM): 0.56%
- viability, T/C (second compound 0.1 µM, first compound 0.3 µM): 0.55%
- viability, T/C (second compound 0.316 µM, first compound 0.000949 µM): 8.09%
- viability, T/C (second compound 0.316 µM, first compound 0.003 µM): 3.51%
- viability, T/C (second compound 0.316 µM, first compound 0.00949 µM): 1.86%
- viability, T/C (second compound 0.316 µM, first compound 0.03 µM): 0.71%
- viability, T/C (second compound 0.316 µM, first compound 0.0949 µM): 0.44%
- viability, T/C (second compound 0.316 µM, first compound 0.3 µM): 0.5%
- viability, T/C (second compound 1 µM, first compound 0.000949 µM): 7.04%
- viability, T/C (second compound 1 µM, first compound 0.003 µM): 3.48%
- viability, T/C (second compound 1 µM, first compound 0.00949 µM): 1.67%
- viability, T/C (second compound 1 µM, first compound 0.03 µM): 0.89%
- viability, T/C (second compound 1 µM, first compound 0.0949 µM): 0.51%
- viability, T/C (second compound 1 µM, first compound 0.3 µM): 0.57%
- viability, T/C (second compound 3.16 µM, first compound 0.000949 µM): 7.47%
- viability, T/C (second compound 3.16 µM, first compound 0.003 µM): 4.23%
- viability, T/C (second compound 3.16 µM, first compound 0.00949 µM): 2.63%
- viability, T/C (second compound 3.16 µM, first compound 0.03 µM): 0.67%
- viability, T/C (second compound 3.16 µM, first compound 0.0949 µM): 0.46%
- viability, T/C (second compound 3.16 µM, first compound 0.3 µM): 0.55%
- viability, T/C (second compound 10 µM, first compound 0.000949 µM): 5.81%
- viability, T/C (second compound 10 µM, first compound 0.003 µM): 2.92%
- viability, T/C (second compound 10 µM, first compound 0.00949 µM): 1.32%
- viability, T/C (second compound 10 µM, first compound 0.03 µM): 0.74%
- viability, T/C (second compound 10 µM, first compound 0.0949 µM): 0.43%
- viability, T/C (second compound 10 µM, first compound 0.3 µM): 1.23%

Compound: O=C(c1cc(Cc2n[nH]c(=O)c3ccccc23)ccc1F)N1CCN(C(=O)C2CC2)CC1 + NC1CCC(NC2CC2c2ccccc2)CC1
- IC50 (second compound 0.1 µM): > 10000 nM
- IC50 (second compound 0.316 µM): > 10000 nM
- IC50 (second compound 1 µM): > 10000 nM
- IC50 (second compound 3.16 µM): > 10000 nM
- IC50 (second compound 10 µM): > 10000 nM
- viability, T/C [1]: 98.2%
- viability, T/C [2]: 97.4%
- viability, T/C (second compound 0.1 µM, first compound 0.316 µM): 96%
- viability, T/C (second compound 0.1 µM, first compound 1 µM): 94.2%
- viability, T/C (second compound 0.1 µM, first compound 3.16 µM): 82.7%
- viability, T/C (second compound 0.1 µM, first compound 10 µM): 51.2%
- viability, T/C [3]: 101%
- viability, T/C [4]: 99.6%
- viability, T/C (second compound 0.316 µM, first compound 0.316 µM): 98.6%
- viability, T/C (second compound 0.316 µM, first compound 1 µM): 95%
- viability, T/C (second compound 0.316 µM, first compound 3.16 µM): 83.2%
- viability, T/C (second compound 0.316 µM, first compound 10 µM): 51.2%
- viability, T/C [5]: 99.4%
- viability, T/C [6]: 100%
- viability, T/C (second compound 1 µM, first compound 0.316 µM): 98.3%
- viability, T/C (second compound 1 µM, first compound 1 µM): 94.4%
- viability, T/C (second compound 1 µM, first compound 3.16 µM): 85.6%
- viability, T/C (second compound 1 µM, first compound 10 µM): 53.1%
- viability, T/C [7]: 102%
- viability, T/C [8]: 101%
- viability, T/C (second compound 3.16 µM, first compound 0.316 µM): 98.2%
- viability, T/C (second compound 3.16 µM, first compound 1 µM): 95%
- viability, T/C (second compound 3.16 µM, first compound 3.16 µM): 84.8%
- viability, T/C (second compound 3.16 µM, first compound 10 µM): 54.4%
- viability, T/C [9]: 95.4%
- viability, T/C [10]: 98.8%
- viability, T/C (second compound 10 µM, first compound 0.316 µM): 98.5%
- viability, T/C (second compound 10 µM, first compound 1 µM): 92.2%
- viability, T/C (second compound 10 µM, first compound 3.16 µM): 81%
- viability, T/C (second compound 10 µM, first compound 10 µM): 53.3%

Compound: CC(C)CC(NC(=O)C(Cc1ccccc1)NC(=O)c1cnccn1)B(O)O (stereo not given) + NC1CCC(NC2CC2c2ccccc2)CC1
- IC50 (second compound 0.1 µM): 1.9 nM
- IC50 (second compound 0.316 µM): 1.94 nM
- IC50 (second compound 1 µM): 1.95 nM
- IC50 (second compound 3.16 µM): 1.77 nM
- IC50 (second compound 10 µM): 0.977 nM
- viability, T/C (second compound 0.1 µM, first compound 0.000316 µM): 99%
- viability, T/C (second compound 0.1 µM, first compound 0.001 µM): 101%
- viability, T/C (second compound 0.1 µM, first compound 0.00316 µM): 10.2%
- viability, T/C (second compound 0.1 µM, first compound 0.01 µM): 2.14%
- viability, T/C [1]: 1.84%
- viability, T/C [2]: 0.67%
- viability, T/C (second compound 0.316 µM, first compound 0.000316 µM): 99.3%
- viability, T/C (second compound 0.316 µM, first compound 0.001 µM): 102%
- viability, T/C (second compound 0.316 µM, first compound 0.00316 µM): 12.7%
- viability, T/C (second compound 0.316 µM, first compound 0.01 µM): 2.31%
- viability, T/C [3]: 0.86%
- viability, T/C [4]: 2.09%
- viability, T/C (second compound 1 µM, first compound 0.000316 µM): 104%
- viability, T/C (second compound 1 µM, first compound 0.001 µM): 101%
- viability, T/C (second compound 1 µM, first compound 0.00316 µM): 13.5%
- viability, T/C (second compound 1 µM, first compound 0.01 µM): 1.19%
- viability, T/C [5]: 1.68%
- viability, T/C [6]: 1.1%
- viability, T/C (second compound 3.16 µM, first compound 0.000316 µM): 105%
- viability, T/C (second compound 3.16 µM, first compound 0.001 µM): 87.8%
- viability, T/C (second compound 3.16 µM, first compound 0.00316 µM): 11.7%
- viability, T/C (second compound 3.16 µM, first compound 0.01 µM): 1.18%
- viability, T/C [7]: 2.66%
- viability, T/C [8]: 0.99%
- viability, T/C (second compound 10 µM, first compound 0.000316 µM): 97.1%
- viability, T/C (second compound 10 µM, first compound 0.001 µM): 49%
- viability, T/C (second compound 10 µM, first compound 0.00316 µM): 9.37%
- viability, T/C (second compound 10 µM, first compound 0.01 µM): 1.01%
- viability, T/C [9]: 0.67%
- viability, T/C [10]: 1.77%
